Legend:
SUR2A [1] = molecular target: T1, SUR2A (Rattus norvegicus, UniProt Q63563); assay: UV-vis absorption titration of purified protein; koff by heme transfer to apo-myoglobin; type: binding
T1 construct: gene Abcc9; residues S615-L933 (SUR2A^615–933; CXXHX16H motif and NBD1)
T1 sequence (Q63563 615-933): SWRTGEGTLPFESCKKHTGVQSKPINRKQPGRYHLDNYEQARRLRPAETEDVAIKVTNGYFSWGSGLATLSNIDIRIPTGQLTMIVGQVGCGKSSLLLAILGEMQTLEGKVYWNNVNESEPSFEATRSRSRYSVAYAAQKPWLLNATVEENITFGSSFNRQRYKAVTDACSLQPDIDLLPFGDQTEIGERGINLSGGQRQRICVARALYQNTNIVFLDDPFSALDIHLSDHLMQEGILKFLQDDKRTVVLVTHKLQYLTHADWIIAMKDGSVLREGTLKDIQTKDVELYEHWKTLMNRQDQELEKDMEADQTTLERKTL

SUR2A [2] = molecular target: T1, SUR2A; assay: spectrophotometric titration; stopped-flow, resonance Raman, ultrafast spectroscopy; type: binding

Row | SMILES | Kd (SUR2A [1]) [µM] | Kd (SUR2A [2]) [µM]
1 | C=CC1=C(C)C2=Cc3c(C=C)c(C)c4[n]3[Fe]([Cl])[n]3c(c(C)c(CCC(=O)O)c3=CC3=NC(=C4)C(C)=C3CCC(=O)O)=CC1=N2 [hemin] | 8 ± 0.6 | –
2 | [C-]#[O+] [carbon monoxide] | – | 0.6 ± 0.3

From paper PMC5834611, “A mechanism for CO regulation of ion channels” (Nature Communications, 2018)
